Data taken from the RepoRT retention time repository (doi:10.1016/j.jhazmat.2019.121712).

test: Thermo Scientific Acclaim RSLC 120 C18, 100 × 2.1 mm, 2.2 µm, 30 °C; A: 90% water + 10% methanol + 0.01% formic acid + 5 mM ammonium formate; B: methanol + 0.01% formic acid + 5 mM ammonium formate; gradient (min/%B) 0.1/1 3/39 14/99.9 16/99.9; conditions: stereoisomer not certain

SMILES | LC retention time [min]
CN(Cc1cnc2nc(N)nc(N)c2n1)c1ccc(C(=O)NC(CCC(=O)O)C(=O)O)cc1 (stereo not given) | 3.96
CCOc1cc(NC(C)=O)ccc1C(=O)OC | 6.63
CCOP(=S)(Oc1cnc(C(C)(C)C)nc1)OC(C)C (stereo not given) | 12.3
CCCSP(=S)(OCC)Oc1ccc(SC)cc1 (stereo not given) | 12.8
CN(CCO)CC(O)Cn1cnc2c1c(=O)n(C)c(=O)n2C (stereo not given) | 2.99
CCNc1nc(NC(C)C)[nH]c(=O)n1 | 5.03
CCNC(C)C(=O)c1ccc(C)cc1 (stereo not given) | 4.74
CCCCCn1cc(C(=O)c2ccc(CC)c3ccccc23)c2ccccc21 | 13.2
CCC1OC(=O)C(C)C(OC2CC(C)(OC)C(O)C(C)O2)C(C)C(OC2OC(C)CC(N(C)C)C2O)C(C)(O)CC(C)C(=O)C(C)C(O)C1(C)O (stereo not given) | 8
CNC(=O)Oc1ccc2c(c1)C1(C)CCN(C)C1N2C (stereo not given) | 3.89
CN1CCCC(CC2c3ccccc3Sc3ccccc32)C1 (stereo not given) | 8.51
CNC(=O)ON=CC(C)(C)S(C)(=O)=O | 3.75
Nc1ccc(N=Nc2ccccc2)c(N)n1 | 8.49
CCC=CCC1=C(C)C(OC(=O)C2C(C=C(C)C)C2(C)C)CC1=O (stereo not given) | 13.3
C1COC(NC(C2CC2)C2CC2)=N1 | 4.4
Cc1ccccc1C(=O)Nc1cccc(OC(C)C)c1 | 9.62
COc1ccc2c(c1)N(CC(C)CN(C)C)c1ccccc1S2=O (stereo not given) | 5.98
CCC(C)Nc1c([N+](=O)[O-])cc(C(C)(C)C)cc1[N+](=O)[O-] (stereo not given) | 13
COc1cc(OC)nc(NC(=O)NS(=O)(=O)c2ncccc2C(=O)N(C)C)n1 | 6.62
OCC(O)CN1CCN(c2ccccc2)CC1 (stereo not given) | 3.79
COc1nc(NC(C)C)nc(NC(C)C)n1 | 8.86
CN(C)CCc1c[nH]c2cccc(O)c12 | 3.29

SMILES | LC retention time [min]
COc1cc2c(cc1OC)C13CCN4CC5=CCOC6CC(=O)N2C1C6C5CC43 (stereo not given) | 4.21
COc1ccc2[nH]cc(CCNC(C)=O)c2c1 | 5.36
CNCC(C)CN1c2ccccc2Sc2ccc(OC)cc21 (stereo not given) | 8.33
CN(C)CCCN1c2ccccc2CCc2ccccc21 | 8.08
COc1cc(CCN)c(OC)cc1C | 5.34
OCCOCCN1CCN(C2=Nc3ccc(O)cc3Sc3ccccc32)CC1 | 4.99
CC(C)(C(=O)O)c1ccc(C(O)CCCN2CCC(C(O)(c3ccccc3)c3ccccc3)CC2)cc1 (stereo not given) | 7.68
CCCc1nn(C)c2c(=S)nc(-c3cc(S(=O)(=O)N4CCN(CCO)CC4)ccc3OCC)[nH]c12 | 10.5
NCC(O)c1ccccc1 (stereo not given) | 2.84
CCCC1CC(C(=O)NC(C(C)O)C2OC(SC)C(O)C(O)C2O)N(C)C1 (stereo not given) | 4.08
CC12CC3CC(C)(C1)CC(N)(C3)C2 | 6.91
COC(=O)C1=C(C)NC(C)=C(C(=O)OC(C)C)C1c1cccc2nonc12 (stereo not given) | 9.61
CCCc1nc(C)c2c(=O)[nH]c(-c3cc(S(=O)(=O)N4CCN(CCO)CC4)ccc3OCC)nn12 | 8.05
CCOc1ccccc1OS(=O)(=O)NC(=O)Nc1nc(OC)cc(OC)n1 | 9.32
C=CC=CCC1=C(C)C(OC(=O)C2C(C=C(C)C(=O)OC)C2(C)C)CC1=O (stereo not given) | 11.7
CCn1cc(C(=O)O)c(=O)c2cc3c(cc21)OCO3 | 6.03
Cc1ncc([N+](=O)[O-])n1CCCO | 4.21
CCOC(=O)c1cn2nc(OP(=S)(OCC)OCC)cc2nc1C | 11.4
OC(CCN1CCCCC1)(c1ccccc1)C1CCCCC1 (stereo not given) | 7.86
O=C1CC2OCC=C3CN4CCC56c7ccccc7N1C5C2C3CC46 (stereo not given) | 4.16
Cc1ncc(CO)c(CO)c1O | 2.18
COP(=S)(OC)Oc1ccc([N+](=O)[O-])c(C)c1 | 9.92

SMILES | LC retention time [min]
CC(C)N1C(=O)c2ccccc2NS1(=O)=O | 5.22
O=C1CN=C(c2ccccc2)c2cc([N+](=O)[O-])ccc2N1 | 7.79
OCc1cc(C(O)CNCCCCCCOCCCCc2ccccc2)ccc1O (stereo not given) | 8.83
NC(=O)C1CCNCC1 | 1.26
CN1CCN2c3ccccc3Cc3ccccc3C2C1 (stereo not given) | 6.94
CCCN(CC)CC1COC2(CCC(C(C)(C)C)CC2)O1 (stereo not given) | 9.32
COc1cc(NS(=O)(=O)c2ccc(N)cc2)nc(OC)n1 | 5.6
CCNCC(O)c1cccc(O)c1 (stereo not given) | 2.66
CN(C)C(=N)N=C(N)N | 1.39
CC=CCC1=C(C)C(OC(=O)C2C(C=C(C)C)C2(C)C)CC1=O (stereo not given) | 12.9
CCCN(CCC)c1c([N+](=O)[O-])cc(S(N)(=O)=O)cc1[N+](=O)[O-] | 10.3
Nc1nc(N)nc(N)n1 | 1.45
CC(C)c1ccc(NC(N)=O)cc1 | 7.76
CCNc1nc(NC(C)CC)nc(OC)n1 (stereo not given) | 8.79
COC1(C)CC(c2ccccc2)c2c(c3ccccc3oc2=O)O1 (stereo not given) | 11.1
CNC1C(C)OC(OC2C(C)OC(OC3C(C)=CCC4CC(CC5(C=CC(C)C(C(C)C)O5)O4)OC(=O)C4C=C(C)C(O)C5OCC(=CC=CC3C)C45O)CC2OC)CC1OC (stereo not given) | 12
CSc1nc2ccccc2s1 | 9.79
COC(=O)C1=C(C)NC(C)=C(C(=O)OCCN(C)Cc2ccccc2)C1c1cccc([N+](=O)[O-])c1 (stereo not given) | 8.39
O=C(c1ccccc1)c1ccc2n1CCC2C(=O)O (stereo not given) | 6.94
CCOP(=S)(OCC)SCSCC | 11.4
COc1ccc(C2Sc3ccccc3N(CCN(C)C)C(=O)C2OC(C)=O)cc1 (stereo not given) | 7.18
CC12CCC(=O)C=C1CCC1C2C(O)CC2(C)C1CCC2(O)C(=O)CO (stereo not given) | 7.84

SMILES | LC retention time [min]
CCOC(=O)C1(c2ccccc2)CCC=CC1NC (stereo not given) | 5.28
CCCCCn1nc(C(=O)c2cccc3ccccc23)c2ccccc21 | 13.1
CCOP(=S)(OCC)SC1OCCOC1SP(=S)(OCC)OCC (stereo not given) | 12.1
Nc1nc(=S)c2[nH]cnc2[nH]1 | 2.53
COc1cc(OC)nc(NC(=O)NS(=O)(=O)N(C)S(C)(=O)=O)n1 | 6.77
O=C1OCC(O)=C1Cc1ccccc1 | 5.06
CCN(CC)CCOCCOC(=O)C1(c2ccccc2)CCCC1 | 7.87
COC1=CC(=O)OC(C=Cc2ccccc2)C1 (stereo not given) | 8.32
CNC(C)C(=O)c1ccc(OC)cc1 (stereo not given) | 4.16
CN1C2CC(OC(=O)C(CO)c3ccccc3)CC1C1OC12 (stereo not given) | 3.83
CCCCCn1cc(C(=O)c2ccc(OC)c3ccccc23)c2ccccc21 | 12.7
CCN(CC)C(=O)C1C=C2c3cccc4c3C(O)(CC2N(C)C1)C(=O)N4 (stereo not given) | 4.23
CCC1OC(=O)CC(O)C(C)C(OC2OC(C)C(OC3CC(C)(O)C(O)C(C)O3)C(N(C)C)C2O)C(CC=O)CC(C)C(=O)C=CC(C)=CC1COC1OC(C)C(O)C(OC)C1OC (stereo not given) | 7.88
OCCN(CCO)c1nc(N2CCCCC2)c2nc(N(CCO)CCO)nc(N3CCCCC3)c2n1 | 9.36
CC(C(=O)c1ccc2c(c1)OCO2)N(C)C (stereo not given) | 3.78
CN(C)C(=O)Nc1ccccc1 | 5.12
Cc1ccccc1-n1c(C)nc2ccccc2c1=O | 7.83
CCNc1nc(NC(C)C)nc(SC)n1 | 9.16
CCCCCn1cc(C(=O)c2cccc3ccccc23)c2ccccc21 | 12.4
O=C1NC(=O)C2CC=CCC12 (stereo not given) | 4.37
O=C1OC(=O)c2ccccc21 | 9.58
Cc1ccc(N(CC2=NCCN2)c2cccc(O)c2)cc1 | 5.86

SMILES | LC retention time [min]
CC(N)C(O)c1ccccc1 (stereo not given) | 3.68
COC(=O)C(Cc1ccccc1)NC(=O)C(N)CC(=O)O (stereo not given) | 5.01
CCCc1nn(C)c2c(=O)[nH]c(-c3cc(S(=O)(=O)N4CCN(C5CCCC5)CC4)ccc3OCC)nc12 | 9.01
CN1CCCCC1Cn1cc(C(=O)C23CC4CC(CC(C4)C2)C3)c2ccccc21 (stereo not given) | 9.94
Nc1nc2c(ncn2COCCO)c(=O)[nH]1 | 2.34
COc1ccc2c(c1)[nH]c1c(C)nccc12 | 5.34
O=C(C1CCCCC1)N1CC(=O)N2CCc3ccccc3C2C1 (stereo not given) | 9.32
COC(=O)NC(C(=O)NC(Cc1ccccc1)C(O)CN(Cc1ccc(-c2ccccn2)cc1)NC(=O)C(NC(=O)OC)C(C)(C)C)C(C)(C)C (stereo not given) | 10.9
CC(C)(C)C(NC(=O)c1nn(CC2CCCCC2)c2ccccc12)C(N)=O (stereo not given) | 11.7
CCC1(c2ccccc2)C(=O)NCNC1=O | 5.29
O=C(Oc1cccc2cccnc12)c1cn(CC2CCCCC2)c2ccccc12 | 12.4
CCOP(=S)(OCC)Oc1cc(C)nc(C(C)C)n1 | 11
NC(=O)N1c2ccccc2CC(O)c2ccccc21 (stereo not given) | 5.94
CNC(=O)Oc1cc(C)cc(C(C)C)c1 | 9.51
Cn1nc2ccccc2n1 | 5.11
C=CCCCn1cc(C(=O)c2cccc3ccccc23)c2ccccc21 | 12
CCOC(=O)C1C(OC(=O)c2ccccc2)CC2CCC1N2C (stereo not given) | 5.46
Cc1nc(N(C)C)nc(OC(=O)N(C)C)c1C | 7.77
CCCCc1c(C)nc(NCC)[nH]c1=O | 8
CCC1CN2CCC3(O)C(=Nc4cccc(OC)c43)C2CC1C(=COC)C(=O)OC (stereo not given) | 5.95
CN1CCc2cccc3c2C1Cc1ccc(O)c(O)c1-3 (stereo not given) | 4.28
CC(=O)Oc1ccc2c3c1OC1C(OC(C)=O)C=CC4C(C2)N(C)CCC341 (stereo not given) | 4.63
